Laboratory results from patent US11021457B2, “Class of isoindolone-imide ring-1,3-dione-2-ene compounds, composition and use thereof” (WIGEN BIOMEDICINE TECHNOLOGY (SHANGHAI) CO., LTD., priority 2017, dated 2021).
Read-outs that look alike come from different tables or passages of the source.

Key:
BxPC-3 = assay: Inhibition of tumor cell proliferation, CellTiter-Glo, BxPC-3; type: cell-based; conditions: compound concentration 50 μM, 72 hours
In short: (§1)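 Activity is graded from survival at 50 μM: + for 60 to under 90%, ++ for over 30 to 60%, +++ for 30% or less. Survival was measured luminescently (CellTiter-Glo) 72 h after dosing, relative to untreated and blank wells; 2000-10000 cells/well, 37° C, 5% CO2.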

K562 = assay: Inhibition of tumor cell proliferation, CellTiter-Glo, K562; type: cell-based; conditions: compound concentration 50 μM, 72 hours
In short: as §1

A549 = assay: Inhibition of tumor cell proliferation, CellTiter-Glo, A549; type: cell-based; conditions: compound concentration 50 μM, 72 hours
In short: as §1

SU-DHL6 = assay: Inhibition of tumor cell proliferation, CellTiter-Glo, SU-DHL6; type: cell-based; conditions: compound concentration 50 μM, 72 hours
In short: as §1

LC3B = LC3B (Homo sapiens (Human), UniProt Q9GZQ8); assay: Fluorescence polarization experiment targeting LC3B (GST-LC3B with FITC-labeled peptide)
MDA-MB-453 = assay: Inhibition of tumor cell proliferation, CellTiter-Glo, MDA-MB-453; type: cell-based; conditions: compound concentration 50 μM, 72 hours
In short: as §1

RPMI-8226 = assay: Inhibition of tumor cell proliferation, CellTiter-Glo, RPMI-8226; type: cell-based; conditions: compound concentration 50 μM, 72 hours
In short: as §1

[1] = GST-LC3B 180 nM, FITC-labeled peptide 18 nM, 25° C.

| IC50 (LC3B) [µM] | Compound | Inhibitory activity against proliferation (cell survival rate) BxPC-3 (BxPC-3) | Inhibitory activity against proliferation (cell survival rate) K562 (K562) | Inhibitory activity against proliferation (cell survival rate) A549 (A549) | Inhibitory activity against proliferation (cell survival rate) SU-DHL6 (SU-DHL6) | IC50 (LC3B; [1]) [µM] | Inhibitory activity against proliferation (cell survival rate) MDA-MB-453 (MDA-MB-453) | Inhibitory activity against proliferation (cell survival rate) RPMI-8226 (RPMI-8226) | cell survival rate (%) at 50 µM (BxPC-3; Homo sapiens, BXPC-3, read-out: Inhibitory activity against proliferation (cell survival rate) BxPC-3) [%] | cell survival rate (%) at 50 µM (K562; Homo sapiens, K562, read-out: Inhibitory activity against proliferation (cell survival rate) K562) [%] | cell survival rate (% of control) at 50 µM (SU-DHL6; Homo sapiens, SU-DHL-6, read-out: Inhibitory activity against proliferation (cell survival rate) SU-DHL6) [%] | cell survival rate (%) at 50 µM (MDA-MB-453; Homo sapiens, MDA-MB-453, read-out: Inhibitory activity against proliferation (cell survival rate) MDA-MB-453) [%] | cell survival rate (% of control) at 50 µM (RPMI-8226; Homo sapiens, RPMI-8226, read-out: Inhibitory activity against proliferation (cell survival rate) RPMI-8226) [%] |
| --- | --- | --- | --- | --- | --- | --- | --- | --- | --- | --- | --- | --- | --- |
|  | CC(=O)Nc1ccccc1C1CC(=O)C(=CNc2cccc3c2CN(C2CCC(=O)NC2=O)C3=O)C(=O)C1 (stereo not shown) [Compound 156] | + (60≤survival rate (%)<90) | +++ (survival rate (%)≤30) | + (60≤survival rate (%)<90) | +++ (survival rate (%)≤30) | < 3 | +++ (survival rate (%)≤30) | +++ (survival rate (%)≤30) |  |  |  |  |  |
|  | O=C1CCC(N2Cc3c(NC=C4C(=O)CC(c5c(F)cccc5Cl)CC4=O)cccc3C2=O)C(=O)N1 (stereo not shown) [Compound 147] | ++ (30<survival rate (%)≤60) | +++ (survival rate (%)≤30) | +++ (survival rate (%)≤30) | +++ (survival rate (%)≤30) | < 3 | ++ (30<survival rate (%)≤60) | +++ (survival rate (%)≤30) |  |  |  |  |  |
|  | C[C@@H](CC(=O)Nc1cccc2c1CN(C1CCC(=O)NC1=O)C2=O)NC=C1C(=O)CC(c2ccccc2)CC1=O (stereo partly shown) [Compound 44] | + (60≤survival rate (%)<90) | +++ (survival rate (%)≤30) | +++ (survival rate (%)≤30) | +++ (survival rate (%)≤30) | 100 to 1000 | + (60≤survival rate (%)<90) | +++ (survival rate (%)≤30) |  |  |  |  |  |
|  | O=C1CCC(N2Cc3c(NC=C4C(=O)CC(c5cc6[nH]ccc6cc5Br)CC4=O)cccc3C2=O)C(=O)N1 (stereo not shown) [Compound 149] | + (60≤survival rate (%)<90) | +++ (survival rate (%)≤30) | + (60≤survival rate (%)<90) | +++ (survival rate (%)≤30) | < 3 | +++ (survival rate (%)≤30) | +++ (survival rate (%)≤30) |  |  |  |  |  |
|  | CCC(=O)/C(=C/Nc1cccc2c1CN(C1CCC(=O)NC1=O)C2=O)C(=O)CCc1ccccc1 (stereo not shown) [Compound 128] | + (60≤survival rate (%)<90) | +++ (survival rate (%)≤30) | +++ (survival rate (%)≤30) | +++ (survival rate (%)≤30) | 100 to 1000 | +++ (survival rate (%)≤30) | +++ (survival rate (%)≤30) |  |  |  |  |  |
|  | O=C1CCC(N2Cc3c(NC=C4C(=O)CC(c5c[nH]c6cccc(F)c56)CC4=O)cccc3C2=O)C(=O)N1 (stereo not shown) [Compound 41] | + (60≤survival rate (%)<90) | +++ (survival rate (%)≤30) | +++ (survival rate (%)≤30) | + (60≤survival rate (%)<90) | < 3 | + (60≤survival rate (%)<90) | + (60≤survival rate (%)<90) |  |  |  |  |  |
|  | O=C1CC(c2ccccc2)CC(=O)C1=CNCCN1CCN(C(=O)N2C(=O)CCC(N3C(=O)c4ccccc4C3=O)C2=O)CC1 (stereo not shown) [Compound 101] | + (60≤survival rate (%)<90) | +++ (survival rate (%)≤30) | +++ (survival rate (%)≤30) | ++ (30<survival rate (%)≤60) | 15 to 100 | ++ (30<survival rate (%)≤60) | +++ (survival rate (%)≤30) |  |  |  |  |  |
|  | O=C1CCC(N2C(=O)c3cccc(NC(=O)CNC=C4C(=O)CC(c5ccccc5)CC4=O)c3C2=O)C(=O)N1 (stereo not shown) [Compound 49] | + (60≤survival rate (%)<90) |  | ++ (30<survival rate (%)≤60) | ++ (30<survival rate (%)≤60) | 100 to 1000 | ++ (30<survival rate (%)≤60) | ++ (30<survival rate (%)≤60) |  |  |  |  |  |
|  | CC(Nc1cccc2c1C(=O)N(C1CCC(=O)NC1=O)C2=O)=C1C(=O)CC(c2ccccc2)CC1=O (stereo not shown) [Compound 76] | ++ (30<survival rate (%)≤60) | +++ (survival rate (%)≤30) | +++ (survival rate (%)≤30) | +++ (survival rate (%)≤30) | 100 to 1000 |  | +++ (survival rate (%)≤30) |  |  |  |  |  |
| 3 to 15 | CN1C(=O)/C(=C\Nc2cccc3c2CN(C2CCC(=O)NC2=O)C3=O)C(=O)c2ccc(C(F)(F)F)cc21 (stereo not shown) [Compound 136] |  |  |  |  |  |  |  | 60 to 90 | 30 to 60 | 60 to 90 | ≤ 30 | ≤ 30 |
|  | O=C1CCC(N2C(=O)c3cccc(NC(=O)[C@@H]4C[C@H](O)CN4CCNC=C4C(=O)CC(c5ccccc5)CC4=O)c3C2=O)C(=O)N1 (stereo partly shown) [Compound 64] | + (60≤survival rate (%)<90) | +++ (survival rate (%)≤30) |  | +++ (survival rate (%)≤30) | 15 to 100 | +++ (survival rate (%)≤30) | ++ (30<survival rate (%)≤60) |  |  |  |  |  |
|  | CC(C)[C@H](NC(=O)CN1CCN(CCNC=C2C(=O)CC(c3ccccc3)CC2=O)CC1)C(=O)N[C@@H](CCCNC(N)=O)C(=O)Nc1cccc2c1CN(C1CCC(=O)NC1=O)C2=O (stereo partly shown) [Compound 60] | ++ (30<survival rate (%)≤60) | + (60≤survival rate (%)<90) |  | ++ (30<survival rate (%)≤60) | 15 to 100 | + (60≤survival rate (%)<90) | +++ (survival rate (%)≤30) |  |  |  |  |  |
|  | O=C1CC(c2ccccc2)CC(=O)C1=CNCCN1CCN(CCOC(=O)N2C(=O)CCC(N3C(=O)c4ccccc4C3=O)C2=O)CC1 (stereo not shown) [Compound 103] | + (60≤survival rate (%)<90) | + (60≤survival rate (%)<90) | +++ (survival rate (%)≤30) | +++ (survival rate (%)≤30) |  | +++ (survival rate (%)≤30) | + (60≤survival rate (%)<90) |  |  |  |  |  |
